Common to all, as to type: cell-based
For assay [1], the system named is human umbilical-vein endothelial cells (HUVEC). The assay is described as follows: Cell Migration Assay (CMA) Test, HUVEC (% relative to control). Conditions: Homo sapiens, HUVEC, 24 hours, 60% or less = remarkable inhibition, read-out: CMA (% relative to control); for activity at 1 µg/mL: 1 μg/ml; for activity at 10 µg/mL: 10 μg/ml. In short, it runs like this: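 Confluent 7th-subculture HUVEC monolayers scraped with razor blade, then given M199 (2+) plus 40 or 4 μl of 1 mg/ml sample (in 5% DMSO-PBS) per 4.0 ml medium for 24 h at 37 °C. Methanol-fixed, Giemsa-stained; newly migrated cells counted microscopically in 1 mm×1 mm blocks, expressed versus M199 (2+) control.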

Assay [2] has the same test system. Nature of the assay: Tube Formation Assay (TFA) Test, HUVEC in collagen gel. Conditions: Homo sapiens, HUVEC, 20 hours, 40% or less judged remarkable, read-out: TFA (inhibition rate, %); for inhibition at 1 µg/mL: 1 μg/ml; for inhibition at 10 µg/mL: 10 μg/ml. In short, it runs like this: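 HUVEC (7th subculture, 1×10^5 cells/ml) attached to collagen gel for 2 h at 37 °C, given sample and overlaid with collagen, then cultured 20 h at 37 °C, 5% CO2 in M-199 with 20% FCS, 30 ng/ml b-FGF and 0.1 μM PMA. Tube length measured by image analysis; % inhibition relative to positive and negative controls.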

Assay [3] has the same test system. Nature of the assay: Cell Proliferation Assay (CPA) Test, HUVEC, MTT. The settings on record: Homo sapiens, M199 (2+) medium, read-out: CPA (IC50 μg/ml). In outline:
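HUVEC (7th subculture) seeded at 5×10^4 cells/ml in M-199 with 20% FCS, 10 ng/ml b-FGF and 10 ng/ml EGF, grown 24 h at 37 °C, 5% CO2. Compounds added from 1 mg/ml or 0.1 mg/ml samples in 5% DMSO-PBS(−), renewed with medium after 24 h, then cultured 48 h more. Read-out by MTT with 4 h incubation and SDS/HCl stop.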

Converted amounts (≈) assume the structure as drawn. Read-outs that look alike come from different tables or passages of the source.

Regarding `CNC(=O)OC1OC=C(C(=O)OCc2ccco2)C2CC3OC3(C)C12` [compound 10, (1S,4aS,6S,7R,7aR)-6,7-epoxy-1,4a,5,6,7,7a-hexahydro-7-methyl-1-(methylcarbamoyloxy) cyclopenta [c]-pyrane-4-carboxy-lic acid furfurylester], in assay [1], the activity at 1 µg/mL was found to be 101% and the activity at 10 µg/mL was 103%. In assay [2] (20 h), the inhibition at 1 µg/mL was 28.6% and the inhibition at 10 µg/mL was found to be 27.7%. Further, the IC50 in assay [3] came out at 93.3 µg/mL (≈ 267 µM).

Regarding `C=CCCCOC(=O)C1=CO[C@@H](OC(=O)NC)[C@@H]2[C@@H]1C[C@@H]1O[C@]21C` [compound 7, (1S,4aS,6S,7R,7aR)-6,7-epoxy-1,4a,5,6,7,7a-hexahydro-7-methyl-1-(methylcarbamoyloxy) cyclopenta [c]-pyrane-4-carboxylic acid 4-pentenylester], in assay [1], the activity at 1 µg/mL came out at 82.6% and the activity at 10 µg/mL was 79.7%. For the same compound, in assay [2] (20 h), the inhibition at 1 µg/mL came out at 25.8% and the inhibition at 10 µg/mL stood at 18.2%. Moreover, in assay [3], the IC50 was 90.6 µg/mL (≈ 269 µM).

With `COC(=O)C1=COC(OC(=O)N(C)C)C2C1CC1OC12C` (stereo not drawn) [compound 31], in assay [1], the activity at 1 µg/mL is 97.2% and the activity at 10 µg/mL came out at 107%. Further, in assay [2] (20 h), the inhibition at 1 µg/mL amounted to 15.2% and the inhibition at 10 µg/mL turned out to be 26.5%. Besides, the IC50 in assay [3] is above 100 µg/mL.

As for `CNC(=O)OC1OC=C(C(=O)N2CCCCC2)C2CC3OC3(C)C12` [compound 26, (1S,4aS,6S,7R,7aR)-6,7-epoxy-1,4a,5,6,7,7a-hexahydro-7-methyl-1-(methylcarbamoyloxy) cyclopenta [c]-pyrane-4-carboxylic acid piperidylamide], in assay [1], the activity at 1 µg/mL is 84% and the activity at 10 µg/mL worked out at 104%. In assay [2] (20 h), the inhibition at 1 µg/mL was 41.2% and the inhibition at 10 µg/mL turned out to be 30.8%. In addition, the IC50 in assay [3] is above 100 µg/mL.

In the case of `CNC(=O)O[C@@H]1OC=C(C(=O)OC)[C@H]2C[C@@H]3O[C@]3(C)[C@H]12` [compound 3, (1S,4aS,6S,7R,7aR)-6,7-epoxy-1,4a,5,6,7,7a-hexahydro-1-methylcarbamoyloxy-7-methylcyclopenta [c] pyrane-4-carboxylic acid methylester], in assay [1], the activity at 1 µg/mL stood at 68.5% and the activity at 10 µg/mL was 57.3%. In assay [2] (20 h), the inhibition at 1 µg/mL was 33% and the inhibition at 10 µg/mL turned out to be 33.5%. The IC50 in assay [3] is above 100 µg/mL.

For the compound `O=c1[nH]cc(F)c(=O)[nH]1` [5-FU, 5-fluorouracil, reference compound], in assay [1], the activity at 1 µg/mL came out at 102% and the activity at 10 µg/mL was found to be 92.9%. In assay [2], the inhibition at 1 µg/mL is 42.4% and the inhibition at 10 µg/mL stood at 52.3%. In assay [3], the IC50 came to 3.5 µg/mL (≈ 26.9 µM).

In general, inhibition refers to how much of the control response was suppressed.

The values above are taken from patent publication US6225478A, “Iridoid derivatives and neovascularization inhibitors containing the same as active ingredient” (Tsumura & Co., priority 1999, dated 2001).
